From publication PMC12263422, “Cryo-EM structure of the human THIK-1 K2P K^+ channel reveals a lower Y gate regulated by lipids and anesthetics” (Nature Structural & Molecular Biology, 2025) come the findings set out here.

Where “and” joins values, the source holds several entries; their conditions need not be identical. Identical values can stand only once. Like-named read-outs stand apart in the source and are kept apart here.

For one assay, the target named is T1, THIK-1 Y273A/I139A (Homo sapiens, UniProt Q9HB14, I139A/Y273A).
T1 construct: expressed in transfected cells; host or cells: Xenopus oocytes (mRNA injection)
T1 sequence (Q9HB14 1-408 I139A/Y273A): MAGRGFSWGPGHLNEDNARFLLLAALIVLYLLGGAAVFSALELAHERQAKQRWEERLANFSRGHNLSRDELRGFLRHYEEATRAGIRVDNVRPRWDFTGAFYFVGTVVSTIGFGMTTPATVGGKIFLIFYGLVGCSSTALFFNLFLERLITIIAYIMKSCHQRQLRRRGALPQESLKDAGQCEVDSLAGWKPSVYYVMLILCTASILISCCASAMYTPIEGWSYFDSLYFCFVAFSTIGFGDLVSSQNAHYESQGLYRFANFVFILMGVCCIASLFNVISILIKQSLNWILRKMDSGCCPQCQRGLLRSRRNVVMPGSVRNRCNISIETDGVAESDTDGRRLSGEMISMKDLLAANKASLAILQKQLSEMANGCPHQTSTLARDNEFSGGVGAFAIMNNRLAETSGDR
The assay is described as follows: Inside-out excised patch recordings, oocytes, THIK-1 Y273A/I139A double mutant. It is filed as cell-based. The conditions noted are these: for τ of 1 mM TPenA block / τ of 1 mM TPenA release: I139A/Y273A; for Normalized currents: THIK-1 Y273A/I139A. The source says:
Human K2P13.1 THIK-1 (GenBank accession number: NM_022054) and human K2P12.1 THIK-2 (NM_022055.1) were used in this study. For functional expression studies, the respective K^+ channel subtype coding sequences were subcloned into the oocyte expression vector pSGEM or the dual-purpose expression vector pFAW[41] and verified by sequencing. All mutant channels were obtained by site-directed mutagenesis and verified by sequencing. To increase surface expression and macroscopic currents, measurements of THIK-2 channels used a mutated ER retention motif, (R11A R12A R14A R15A R16A; THIK-2*)[20]. Vector DNA was linearized with NheI or MluI, and mRNA was synthesized in vitro using the SP6 or T7 AmpliCap Max High Yield Message Maker Kit (Cellscript, USA) or HiScribe T7 ARCA mRNA Kit (New England Biolabs).
Two-electrode voltage–clamp (TEVC) studies were performed in Xenopus oocytes. All animal use conformed to the Guide for the Care and Use of Laboratory Animals (NIH Publication 85–23), and all experiments using Xenopus toads were approved by the local ethics panels. Oocytes were stored at 17 °C in ND96 recording solution composed of (in mM): 96 NaCl, 2 KCl, 1.8 CaCl2, 1 MgCl2, 5 HEPES (pH 7.5 adjusted with NaOH and HCl), supplemented with Na-pyruvate (275 mg L^–1), theophylline (90 mg L^–1) and gentamicin (50 mg L^–1). Oocytes were injected with 1 ng mRNA for WT or mutant channels, and were incubated for 24–48 h at 17 °C. Two-electrode voltage clamp recordings were then performed as previously described[42],[43]. For macroscopic patch–clamp measurements, oocytes were obtained as described above incubated at 17 °C in a solution containing (mM): 54 NaCl, 30 KCl, 2.4 NaHCO3, 0.82 MgSO4 ×7 H2O, 0.41 CaCl2, 0.33 Ca(NO3)2 ×4 H2O and 7.5 TRIS (pH 7.4 adjusted with NaOH and HCl) for 1–4 days before use. Excised patch recordings in inside-out configuration conditions were performed at room temperature. Patch pipettes were made from thick-walled borosilicate glass GB 200TF-8P (Science Products), had resistances of 0.2–0.5 MΩ (tip diameter, 10–25 µm) and filled with a pipette solution (in mM): 120 KCl, 10 HEPES and 3.6 CaCl2 (pH 7.4 adjusted with KOH and HCl). Intracellular bath solutions and compounds were applied to the cytoplasmic side of excised patches for the various K^+ channels through a gravity flow multi-barrel pipette system. The intracellular solution had the following composition (in mM): 120 KCl, 10 HEPES, 2 EGTA and 1 pyrophosphate (pH adjusted with KOH and HCl). Currents were recorded with an EPC10 amplifier (HEKA Electronics) and sampled at 10 kHz or higher, with filtering set to 3 kHz (–3 dB) or higher, as appropriate for sampling rate. For measurements of GPCR activation, whole-cell currents were recorded for THIK-1 in transiently transfected HEK-293 cells. Cells were stimulated by a ramp protocol between −100 and +60 mV (holding potential, −80 mV). The pipette solution was composed of (in mM): 140 KCl, 2 MgCl2, 1 CaCl2, 2.5 EGTA and 10 HEPES (pH 7.3 adjusted with KOH and HCl). The extracellular bath solution had the following composition (in mM): 135 NaCl, 5 KCl, 2 MgCl2, 2 CaCl2, 10 glucose and 10 HEPES pH (pH 7.3 adjusted with NaOH and HCl). Oxotremorine M (Oxo-M) was added to extracellular bath solution to obtain the final concentration. Single-channel currents were recorded with an Axopatch 200B amplifier through a Digidata 1440A digitizer (Molecular Devices). Data were filtered at 2 kHz and recorded at a 200-kHz sampling rate with the program Clampex (Molecular Devices). Pipette solution and bath solution for cell-attached recordings contained (in mM): 140 KCl, 2 MgCl2, 1 CaCl2 and 10 HEPES (pH 7.4 adjusted with KOH and HCl). For inside-out recordings, the bath solution contained (in mM): 140 KCl, 2 MgCl2, 1 CaCl2 and 10 HEPES (pH 7.2 adjusted with KOH and HCl). All experiments were conducted at room temperature. […]

The target of another assay is T2, THIK-1 R258A (Homo sapiens, UniProt Q9HB14, R258A).
T2 construct: expressed in transfected cells; host or cells: Xenopus oocytes (mRNA injection)
The assay can be described thus: Inside-out excised patch recordings, oocytes, THIK-1 R258A mutant (lipid activation). It is filed as cell-based. The conditions noted are these: read-out: Linoleic acid EC50. The source says:
Supplement 41594_2025_1497_MOESM2_ESM.xlsx, sheet "ExtData_Fig_S5f" | column: Linoleic acid EC50 (µM); R258A

T2 sequence (Q9HB14 whole entry R258A): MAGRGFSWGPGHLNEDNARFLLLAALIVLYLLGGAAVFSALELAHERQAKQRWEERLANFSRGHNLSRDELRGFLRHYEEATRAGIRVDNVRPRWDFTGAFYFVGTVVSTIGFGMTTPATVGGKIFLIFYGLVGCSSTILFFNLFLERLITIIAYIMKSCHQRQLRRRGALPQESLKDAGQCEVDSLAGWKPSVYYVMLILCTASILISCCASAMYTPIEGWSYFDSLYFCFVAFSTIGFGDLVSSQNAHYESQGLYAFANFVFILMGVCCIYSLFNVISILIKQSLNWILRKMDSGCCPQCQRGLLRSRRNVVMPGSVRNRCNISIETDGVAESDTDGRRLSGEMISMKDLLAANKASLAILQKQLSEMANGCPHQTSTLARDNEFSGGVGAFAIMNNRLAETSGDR

In the case of `CCCCC[N+](CCCCC)(CCCCC)CCCCC` [TPenA, tetrapentylammonium], the “τ of 1 mM TPenA block” value is 0.121 s and 0.062 s and 0.131 s and 0.164 s and 0.120 s and 0.094 s and 0.191 s and 0.111 s and 0.116 s and 0.183 s and 0.093 s and 0.084 s and 0.142 s and 0.070 s and 0.095 s and 0.042 s at THIK-1 Y273A/I139A (individual recordings); 0.11 s at THIK-1 Y273A/I139A (mean). The “τ of 1 mM TPenA release” value at THIK-1 Y273A/I139A (individual recordings) was 0.960 s and 0.559 s and 1.130 s and 0.565 s and 0.799 s and 0.283 s and 0.914 s and 0.634 s and 0.842 s and 0.928 s and 0.662 s and 0.571 s and 0.449 s and 0.371 s and 1.055 s; at THIK-1 Y273A/I139A (mean) it was 0.71 s. Moreover, the Normalized currents on THIK-1 Y273A/I139A (TPenA 0.1 µM) was determined as 1.00; on THIK-1 Y273A/I139A (TPenA 1 µM) it was 0.95; at THIK-1 Y273A/I139A (TPenA 4 µM), 0.90; on THIK-1 Y273A/I139A (TPenA 15.6 µM), 0.68; at THIK-1 Y273A/I139A (TPenA 62.5 µM), 0.47; on THIK-1 Y273A/I139A (TPenA 250 µM), 0.22. For the same molecule, the results for the Normalized currents at THIK-1 Y273A/I139A (TPenA 1000 µM) and on THIK-1 Y273A/I139A (TPenA 4000 µM) were 0.08 and 0.03, respectively.

Broadly, the EC50 is the concentration that produces a half-maximal response. Take `CCCCC/C=C\C/C=C\CCCCCCCC(=O)O` [linoleic acid]: the concentration for a half-maximal effect (EC50) at THIK-1 R258A (individual recordings) was 24.9 µM and 30.3 µM and 69.4 µM and 74.3 µM and 47.4 µM and 62.2 µM and 21.9 µM and 23.3 µM and 47.9 µM and 30 µM; on THIK-1 R258A (mean), 43.2 µM.
